Source: publication PMC8781472, “Two Novel Palbociclib-Resorcinol and Palbociclib-Orcinol Cocrystals with Enhanced Solubility and Dissolution Rate” (Pharmaceutics, 2021)

Columns and labels:
[1] = design: method as in doi:10.1021/acs.cgd.7b01281; conditions: cited from earlier work
[2] = In vitro cytotoxicity MTT assay; type: cell-based, human; conditions: human, normal HUVEC cell line
Method: (§1) The human umbilical vein endothelial cell line (HUVEC) was a gift from Prof. F Y Chen (Xiangya Hospital, Changsha, China). The cells were grown in DMEM (Hyclone, Logan, UT, USA) supplied with 10% fetal bovine serum (Hyclone, Logan, UT, USA) and 1% penicillin/streptomycin mixture. Furthermore, all the cells were cultured at a 37 ℃, 5% CO2 humidified incubator. The cytotoxicity activity of compounds PAL, PAL-RES and PAL-ORC for normal HUVEC cell line was assessed via the MTT assay. The cells were cultured at a density of 8000 cells/well in a 96 well plate. Five different concentrations (0, 0.1, 1, 10 and 100 μM) of compounds PAL, PAL-RES and PAL-ORC in DMSO were subsequently added to the wells then incubated under 5% CO2 at 37 °C for 48 h; 50 μL of MTT (2 mg/mL) was added to each well, and the cells were incubated for another 4 h. Next, the liquid in each well was removed, and DMSO (150 μL) was added. The absorbance (OD values) at 490 nm was measured by a microplate reader (Biotek, SYNERGY HTX, VT, USA). Each concentration was tested in triplicate.

[3] = Powder dissolution (paddle method); type: physicochemical; conditions: for Equilibrium dissolution: powder, 500 mL phosphate buffer pH 6.8, 37 °C, 50 rpm, 50 mg PAL equivalent
Method: […] PAL, PAL-RES, and PAL-ORC were ground and passed through a 200 mesh sieve. In total, 50 mg of PAL or a PAL equivalent amount of cocrystal were weighed for the powder dissolution experiment. At 5, 10, 15, 30, 45, 60, 90, 120, 180, 240, 300, 360, 480, 600, 720, 1080, 1440 min, taken out 1 mL of the dissolved sample and […] with an equal volume of fresh medium in order to maintain a constant dissolution system. The PAL concentration was measured using the same method as the IDR part. All the experiments were conducted in triplicate.

[4] = In vivo pharmacokinetic experiments in rats; design: species or system Sprague−Dawley rats; conditions: SD rats, single oral dose equivalent to 5 mg/kg PAL, plasma PAL
Method: The PK profiles of PAL, PAL-RES and PAL-ORC were determined in adult male Sprague−Dawley rats (SD rats, 200–250 g), which were commercially obtained from Pizhou Oriental Breeding Co., Ltd. (Xuzhou, China). All the experiments were approved by the Ethics and Experimental Animal Committee of Jiangsu Ocean University (Project identification code: 202100021). The rats were housed in standard cages with constant temperature and humidity, and a 12 h light−dark cycling condition was set. Before the commencement of the studies, all the rats were fasted overnight with free access to water for 12 h. Fifteen animals were randomly assigned to three groups (n = 5/group) and intragastrically administrated with PAL, PAL-RES, and PAL-ORC in 0.5% (w/v) aqueous sodium methyl cellulose solution, respectively. A dose equivalent to 5 mg/kg body weight of PAL was used to conduct the evaluation. After the oral administration, blood collections were performed at designated time points (0.5, 1, 2, 4, 6, 8, 12, 24 and 48 h) using centrifuge tubes containing EDTA-K2. Next, the plasma samples were obtained from the whole blood by centrifuging at 4000 rpm for 10 min. The plasma samples were prepared for HPLC analysis by washing with 300 μL methanol, and the PAL concentration was measured using the same method as described in “2.10. Intrinsic dissolution rate (IDR) experiments”. Moreover, the PK parameters were calculated by Phoenix WinNonlin 6.0 pharmacokinetic software package (Certara, Princeton, NJ, USA).

[5] = Intrinsic dissolution rate (IDR) experiments; type: physicochemical; conditions: for Dissolution rate compared with PAL: hydrochloric acid solution pH 1.0; for Increase of dissolution rate compared with PAL: phosphate buffer pH 6.8
Method: In the IDR experiment, one side of the compact was sealed with melted wax, and the other side was not covered to contact with the solution. The temperature was set to 37 ℃, the paddle speed was 100 rpm, the samples were collected at the corresponding time points (phosphate buffer pH 6.8: 60, 120, 180, 240, 300, 360 min; acetic acid buffer pH 4.5: 1, 2, 3, 5, 7, 10 min; hydrochloric acid solution pH 1.0: […]) and supplemented with the same volume of culture base. Filtered the supernatant (0.22 μm) to remove undissolved particles. The PAL concentration was measured by an LC-20AD HPLC system (Shimadzu, Kyoto, Japan). At 40 °C, an Agilent ZORBAX Eclipse XDB-C18 column (250 mm × 4.6 mm, 5 μm, Agilent, Santa Clara, CA, USA) and a UV detector with a wavelength of 356 nm were used to separate the palbociclib. The mobile phase contained 0.1% acetic acid in methanol and water (80:20, v/v), the flow rate was 0.8 mL/min, and the isocratic elution was 10 min. The results were stated as the average of three replicated experiments.

[6] = Accelerated stability testing, analysed by PXRD; type: physicochemical; conditions: 40 °C/75% RH for 3 months
Method: For the physical stability studies, the powder samples of the cocrystals were exposed to accelerated condition (YSEI, China) with 40 °C/75% RH for three months; subsequently, the samples were analyzed by PXRD.

[7] = Stress testing (high temperature, high humidity, strong illumination), analysed by PXRD; type: physicochemical; conditions: high temperature (60 °C), high humidity (92.5% RH), strong illumination (4500 LX)
Method: The cocrystals were subjected to a high temperature (60 °C), high humidity (92.5% RH), and strong illumination (4500 lx) condition respectively for stress testing experiments. The samples were analyzed by PXRD to detect possible solid-state transformation at 0, 5, 10 days.

HUVEC = assay: In vitro cytotoxicity MTT assay; type: cell-based, human; conditions: normal HUVEC cell line, 48 h
Method: as §1

SMILES | IC50 at 48 h [2] | Equilibrium dissolution [3] | Dissolution rate compared with PAL [5] | Increase of dissolution rate compared with PAL [5] | Physical stability (PXRD, phase transformation) [6] | Time physically stable under stress testing conditions [7] | IC50 (HUVEC) | other results
O=C1CCc2ccc(OCCCCN3CCN(c4cccc(Cl)c4Cl)CC3)cc2N1 [ARI, aripiprazole] | – | – | – | – | – | – | – | Maximum aripiprazole concentration [1]: 1.6 mg/L
Cc1cc(O)cc(O)c1 [ORC, orcinol] | > 100 µM | – | – | – | – | – | – | –
CC(=O)c1c(C)c2cnc(Nc3ccc(N4CCNCC4)cn3)nc2n(C2CCCC2)c1=O [PAL, Palbociclib] | 2.4 ± 0.07 µM | 20.09% | – | – | – | – | – | Powder dissolution under acidic conditions ([3]; pH 1.0 or 4.5): dissolves completely at pH 1.0 or 4.5 within five minutes; Vd [4]: 20.48 L/kg; AUC(0-t) ([4]; male, Sprague-Dawley, rat): 2620 ng·h/mL; Cmax ([4]; male, Sprague-Dawley, rat): 347 ng/mL; MRT ([4]; male, Sprague-Dawley, rat): 5.36 h; Tmax ([4]; male, Sprague-Dawley, rat): 4 h; half-life ([4]; male, Sprague-Dawley, rat): 19.9 h
CC(=O)c1c(C)c2cnc(Nc3ccc(N4CCNCC4)cn3)nc2n(C2CCCC2)c1=O.Cc1cc(O)cc(O)c1 [PAL-ORC] | – | 49.93% | 1.2 times | two times | physically stable | at least 10 days | 0.85 ± 0.13 µM | Intrinsic dissolution rate (slope of fitted IDR line) ([5]; acetate buffer pH 4.5, 37 °C, 100 rpm): 0.53 mg/min/cm^2
CC(=O)c1c(C)c2cnc(Nc3ccc(N4CCNCC4)cn3)nc2n(C2CCCC2)c1=O.Oc1cccc(O)c1 [PAL-RES] | – | 60.22% | 1.2 times | three times | physically stable | at least 10 days | 4.02 ± 0.07 µM | Change of dissolution rate compared with PAL ([5]; acetate buffer pH 4.5): only a slight increase in dissolution rate
Oc1cccc(O)c1 [RES, Resorcinol] | > 100 µM | – | – | – | – | – | – | –
